The values that follow come from US20250177396A1, “POLO-LIKE KINASE 4 (PLK4) INHIBITORS, PHARMACEUTICAL COMPOSITIONS, METHODS OF PREPARATION AND USES THEREOF” (Repare Therapeutics Inc., priority 2022, published 2025).

The experiment concerns the target T1, PLK4 (Homo sapiens, UniProt O00444).
T1 construct: expressed in transfected cells; host or cells: HEK293 T cells (ATCC CRL-3216)
T1 sequence (O00444 1-970): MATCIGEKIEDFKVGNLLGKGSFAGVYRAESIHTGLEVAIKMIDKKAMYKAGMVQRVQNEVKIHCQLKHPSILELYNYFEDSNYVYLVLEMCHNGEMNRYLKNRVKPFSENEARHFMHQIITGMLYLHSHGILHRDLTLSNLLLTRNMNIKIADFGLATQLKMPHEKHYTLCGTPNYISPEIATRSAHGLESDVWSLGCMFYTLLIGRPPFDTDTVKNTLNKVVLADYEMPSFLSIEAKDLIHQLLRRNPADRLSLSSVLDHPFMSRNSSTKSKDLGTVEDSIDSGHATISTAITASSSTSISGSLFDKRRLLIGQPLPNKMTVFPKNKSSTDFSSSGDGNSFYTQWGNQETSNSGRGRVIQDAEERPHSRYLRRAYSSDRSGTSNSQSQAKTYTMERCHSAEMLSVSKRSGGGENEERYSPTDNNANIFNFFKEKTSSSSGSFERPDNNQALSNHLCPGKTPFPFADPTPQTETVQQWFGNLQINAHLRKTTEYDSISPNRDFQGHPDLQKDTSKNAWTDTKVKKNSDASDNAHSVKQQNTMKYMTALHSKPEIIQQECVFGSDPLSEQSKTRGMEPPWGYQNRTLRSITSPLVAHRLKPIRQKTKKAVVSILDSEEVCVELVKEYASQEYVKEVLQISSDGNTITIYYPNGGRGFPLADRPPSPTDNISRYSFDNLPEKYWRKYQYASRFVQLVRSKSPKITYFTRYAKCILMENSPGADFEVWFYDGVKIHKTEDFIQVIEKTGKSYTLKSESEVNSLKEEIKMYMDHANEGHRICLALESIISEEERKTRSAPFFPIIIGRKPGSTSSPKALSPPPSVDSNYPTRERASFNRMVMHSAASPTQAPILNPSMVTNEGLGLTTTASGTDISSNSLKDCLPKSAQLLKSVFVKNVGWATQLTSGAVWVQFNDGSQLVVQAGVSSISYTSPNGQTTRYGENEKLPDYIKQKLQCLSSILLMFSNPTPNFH
Kind of experiment: PLK4 NanoBRET target engagement assay. The class given is binding. As to conditions: HEK293 T cells transfected with PLK4 NanoLuc fusion vector; K-5 tracer; 2 hrs incubation. An outline of the steps: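 HEK293T cells transiently expressing PLK4-NanoLuc, plated at 17000 cells/well with K-5 tracer and compound, incubated 2 h at 37 °C/5% CO2. After substrate/inhibitor mix, 610/450 nm emission ratio ×1000 gave mBRET; IC50 from 4-parameter fit.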

Structures are written as SMILES. pIC50: −log10 of the molar value.

`Cc1cc(Nc2nc(N(C)c3c(F)cc(S(C)(=O)=O)cc3F)nc(-c3cc(CO)n(C)n3)c2C2CC2)n[nH]1` [Compound 178] had a negative logarithm of the IC50 (pIC50) of 7.96. Molecule `Cc1cc(Nc2nc(N(C)c3c(F)cc(S(C)(=O)=O)cc3F)nc(C(N)=O)c2C2CC2)n[nH]1` [Compound 179] gave a negative-log IC50 (pIC50) of 6.59.

On to `Cc1cc(Nc2nc(N(C)c3c(F)cc(S(C)(=O)=O)cc3F)nc(-c3cn(C4COC4)nc3C)c2C2CC2)n[nH]1` [Compound 180], for which the negative-log IC50 (pIC50) was 8.40.

With `Cc1cc(Nc2nc(N(C)c3c(F)cc(S(C)(=O)=O)cc3F)nc(-c3cnn(C)c3N)c2C2CC2)n[nH]1` [Compound 181], the pIC50 is 7.54. Molecule `Cc1cc(Nc2nc(N(C)c3c(F)cc(S(C)(=O)=O)cc3F)nc(-c3cnn4c3COCC4)c2C2CC2)n[nH]1` [Compound 182] had a pIC50 of 7.96.

`Cc1cc(Nc2nc(N(C)c3c(F)cc(S(C)(=O)=O)cc3F)nc(-c3cnc4n3CCC4)c2C2CC2)n[nH]1` [Compound 183] gave a negative logarithm of the IC50 (pIC50) of 7.89. For the molecule `Cc1cc(Nc2nc(N(C)c3c(F)cc(S(C)(=O)=O)cc3F)nc(N3CCN(C)C(=O)C3)c2C2CC2)n[nH]1` [Compound 184], the pIC50 is 7.48.

Regarding `Cc1cc(Nc2nc(N(C)c3c(F)cc(S(C)(=O)=O)cc3F)nc(-c3cn(C4CCOCC4)nc3C)c2C2CC2)n[nH]1` [Compound 185], the pIC50 is 7.68. `Cc1cc(Nc2nc(N(C)c3c(F)cc(S(C)(=O)=O)cc3F)nc(-c3cnn(C4CS(=O)(=O)C4)c3)c2C2CC2)n[nH]1` [Compound 186] showed a negative logarithm of the IC50 (pIC50) of 7.77. With `Cc1cc(Nc2nc(N(C)c3cc(F)c(S(C)(=O)=O)cc3F)nc(-c3cn(C)c(C)n3)c2C2CC2)n[nH]1` [Compound 187], the pIC50 was 7.89. In turn, `COCCn1cc(-c2nc(N(C)c3c(F)cc(S(C)(=O)=O)cc3F)nc(Nc3cc(C)[nH]n3)c2C2CC2)nc1C` [Compound 188] showed a negative logarithm of the IC50 (pIC50) of 8.10. As for `Cc1cc(Nc2nc(Nc3c(F)cc(S(C)(=O)=O)cc3F)nc(-c3cn(C)cn3)c2C2CC2)n[nH]1` [Compound 189], the pIC50 is 6.82. For `Cc1cc(Nc2nc(N(C)c3c(F)cc(S(C)(=O)=O)cc3F)nc(-c3cn(CCS(C)(=O)=O)c(C)n3)c2C2CC2)n[nH]1` [Compound 192], the negative logarithm of the IC50 (pIC50) was 6.21. As to `Cc1cc(Nc2nc(N(C)c3c(F)cc(S(C)(=O)=O)cc3F)nc(-c3cnn([C@H]4CC[C@H](O)CC4)c3)c2C2CC2)n[nH]1` [Compound 193], the pIC50 was 8.52. Molecule `Cc1cc(Nc2nc(N(C)c3cc(F)c(S(C)(=O)=O)cc3F)nc(-c3ccn(C(F)F)n3)c2C2CC2)n[nH]1` [Compound 194] gave a pIC50 of 7.20. In turn, `Cc1cc(Nc2nc(N(C)c3cc(F)c(S(C)(=O)=O)cc3F)nc(-c3cn4c(n3)CCC4)c2C2CC2)n[nH]1` [Compound 197] gave a negative-log IC50 (pIC50) of 7.62.

As for `Cc1cc(Nc2nc(N(C)c3c(F)cc(S(C)(=O)=O)cc3F)nc(-c3cn(C)nc3C3CC3)c2C2CC2)n[nH]1` [Compound 198], the pIC50 is 8.40. `Cc1cc(Nc2nc(N(C)c3ccc(S(C)(=O)=O)cc3F)nc(-c3cn(C(C)C)cn3)c2C2CC2)n[nH]1` [Compound 199] gave a negative logarithm of the IC50 (pIC50) of 7.77. The molecule `Cc1cc(Nc2nc(N(C)c3cc(F)c(S(C)(=O)=O)cc3F)nc(-c3cn(C(C)C)cn3)c2C2CC2)n[nH]1` [Compound 200] gave a negative-log IC50 (pIC50) of 8.10. In turn, `Cc1cc(Nc2nc(N(C)c3c(F)cc(S(C)(=O)=O)cc3F)nc(-c3cnn(CCO)c3C)c2C2CC2)n[nH]1` [Compound 201] had a negative-log IC50 (pIC50) of 8.15. Molecule `Cc1cc(Nc2nc(N(C)c3c(F)cc(S(C)(=O)=O)cc3F)nc(-c3cn(CCO)nc3C)c2C2CC2)n[nH]1` [Compound 202] showed a pIC50 of 8.22. In turn, `Cc1cc(Nc2nc(N(C)c3c(F)cc(S(C)(=O)=O)cc3F)nc(-c3cnn4c3OCCC4)c2C2CC2)n[nH]1` [Compound 203] had a negative logarithm of the IC50 (pIC50) of 8.22. `Cc1cc(Nc2nc(N(C)c3c(F)cc(S(C)(=O)=O)cc3F)nc(-c3cn(C)c(C#N)n3)c2C2CC2)n[nH]1` [Compound 204] gave a pIC50 of 8.10. As to `Cc1cc(Nc2nc(N(C)c3c(F)cc(S(C)(=O)=O)cc3F)nc(-c3ccn(C)c(=O)c3)c2C2CC2)n[nH]1` [Compound 205], the pIC50 was 7.66. `Cc1cc(Nc2nc(N(C)c3c(F)cc(S(C)(=O)=O)cc3F)nc(-c3cnn(CC#N)c3)c2C2CC2)n[nH]1` [Compound 206] showed a negative logarithm of the IC50 (pIC50) of 8.40.

Consider `Cc1cc(Nc2nc(N(C)c3cc(F)c(S(C)(=O)=O)cc3F)nc(-c3cn(C4CC4)cn3)c2C2CC2)n[nH]1` [Compound 207], for which the pIC50 is 8.22.

As for `Cc1cc(Nc2nc(N(C)c3ccc(S(C)(=O)=O)cc3F)nc(-c3cn(C4CC4)cn3)c2C2CC2)n[nH]1` [Compound 208], the negative-log IC50 (pIC50) was 8.05. `Cc1cc(Nc2nc(N(C)c3c(F)cc(S(C)(=O)=O)cc3F)nc(-c3ccn(C4CC4)n3)c2C2CC2)n[nH]1` [Compound 209] had a negative-log IC50 (pIC50) of 8.30. As for `Cc1cc(Nc2nc(N(C)c3cc(F)c(S(C)(=O)=O)cc3F)nc(-c3cn4c(n3)CCOC4)c2C2CC2)n[nH]1` [Compound 210], the pIC50 was 8.10. In turn, `Cc1cc(Nc2nc(N(C)c3c(F)cc(S(C)(=O)=O)cc3F)nc(-c3cn4c(n3)CNCC4)c2C2CC2)n[nH]1` [Compound 211] had a negative-log IC50 (pIC50) of 7.40. Molecule `CC(=O)N1CCn2cc(-c3nc(N(C)c4c(F)cc(S(C)(=O)=O)cc4F)nc(Nc4cc(C)[nH]n4)c3C3CC3)nc2C1` [Compound 212] had a negative-log IC50 (pIC50) of 7.28. Consider `Cc1cc(Nc2nc(N(C)c3c(F)cc(S(C)(=O)=O)cc3F)nc(-c3cnn(CC(C)(C)O)c3)c2C2CC2)n[nH]1` [Compound 213], for which the pIC50 was 8.22.

Turning to `Cc1cc(Nc2nc(N(C)c3c(F)cc(S(C)(=O)=O)cc3F)nc(-c3ncn(C)n3)c2C2CC2)n[nH]1` [Compound 215], the pIC50 is 7.16. `Cc1cc(Nc2nc(N(C)c3c(F)cc(S(C)(=O)=O)cc3F)nc(-c3ncnn3C)c2C2CC2)n[nH]1` [Compound 216]: the negative logarithm of the IC50 (pIC50) is 6.72.

As for `Cc1cc(Nc2nc(N(C)c3c(F)cc(S(C)(=O)=O)cc3F)nc(-c3cn(C)c(C(C)O)n3)c2C2CC2)n[nH]1` (stereo not shown) [Compound 217], the pIC50 was 7.72.

Regarding `Cc1cc(Nc2nc(N(C)c3c(F)cc(S(C)(=O)=O)cc3F)nc(-c3nn(C)cc3CO)c2C2CC2)n[nH]1` [Compound 218], the pIC50 was 7.28. In turn, `COCCn1cc(-c2nc(N(C)c3ccc(S(C)(=O)=O)cc3F)nc(Nc3cc(C)[nH]n3)c2C2CC2)c(C)n1` [Compound 219] gave a negative logarithm of the IC50 (pIC50) of 7.74. `COCCn1ncc(-c2nc(N(C)c3ccc(S(C)(=O)=O)cc3F)nc(Nc3cc(C)[nH]n3)c2C2CC2)c1C` [Compound 220] showed a negative-log IC50 (pIC50) of 7.42. The same measure for `COCCn1cc(-c2nc(N(C)c3cc(F)c(S(C)(=O)=O)cc3F)nc(Nc3cc(C)[nH]n3)c2C2CC2)c(C)n1` [Compound 221]: 7.92.

Regarding `COCCn1ncc(-c2nc(N(C)c3cc(F)c(S(C)(=O)=O)cc3F)nc(Nc3cc(C)[nH]n3)c2C2CC2)c1C` [Compound 222], the pIC50 was 7.82.

For the molecule `Cc1cc(Nc2nc(N(C)c3cc(F)c(S(C)(=O)=O)cc3F)nc(-c3cnn([C@H]4CC[C@H](O)CC4)c3)c2C2CC2)n[nH]1` [Compound 223], the pIC50 is 8.05. `COCCn1cc(-c2nc(N(C)c3cc(F)c(S(C)(=O)=O)cc3F)nc(Nc3cc(C)[nH]n3)c2C2CC2)nc1C` [Compound 224] had a negative-log IC50 (pIC50) of 7.89.

Take `Cc1cc(Nc2nc(N(C)c3c(F)cc(S(C)(=O)=O)cc3F)nc(-c3cn(CCO)cn3)c2C2CC2)n[nH]1` [Compound 225]: the pIC50 was 7.05.
